{
  "source": "patent US5277897A",
  "about": "“In vivo enhancement of cellular accumulation of lipophilic cationic organometallic compounds by reduction of intramembrane potential” (Brigham and Women's Hospital, priority 1992, dated 1994)",
  "key": {"[1]": {"tested_on": "cultured chick heart cells", "assay": "Effect of MSA on Tc-MIBI net accumulation (FIG. 3)", "type": "cell-based", "conditions": "TPB 10^-5 M, n=3", "experimental": "FIG. 3. Effect of MSA on Tc-MIBI net accumulation. Preparations were incubated for the times indicated in Tc-MIBI loading buffer containing 5.4 mM KCl (.quadrature., .smallcircle.) or 5.4 mM K-MSA ( , ·; prepared by equimolar substitution of K-MSA KCl) in the absence (.quadrature., ) or presence (.smallcircle., ·) of TPB (10^-5 M). Each point represents the mean ±SEM of 3 determinations.\nControl buffer was a modified Earle's balanced salt solution (MEBSS) with the following composition (mN) Na^30, 145; K^+, 5.4; Ca^2, 1.2; Mg^2+, 0.8; Cl, 152; H2 PO4, 0.8; SO4^2-, 0.8; dextrose, 5.6; HEPES, 4.0; and bovine calf serum, 1% (v/v); […]; 37° C. K-methanesulfonate was made by titration of methanesulfonic acid with KOH (Piwnica-Worms, D., et al., J. Gen. Physiol. 81:731-748 (1983)) and replaced […] in some solutions by equimolar substitution where indicated. Natetraphenylborate, CCCP, bumetanide and valinomycin were dissolved into DMSO prior to addition to buffer. DMSO alone has no significant affect on contractile activity, action potential configuration (Lieberman, M., et al., Dev. Biol. 31:380-403 (1973)) or Tc-MIBI uptake kinetics (Piwnica-Worms, D., et al., Circ. (in press)).\nMonolayers of spontaneously contractile chick ventricular myocardial cells were obtained from disaggregated 10-day old chick embryo hearts by a slight modification of previously published methods (Horres, C. R., et al., In Pinson, A. (ed.), The Heart Cell in Culture, Boca Raton, CRC Press, pp. 77-108 (1987)). […] Cells were centrifuged at 400 g for 10 minutes, resuspended and combined in culture medium, counted with a hemocytometer and diluted to yield a suspension of 5×10^5 cells/ml. […]\nRadioactive uptake methods have been described in detail (Piwnica-Worms, D., et al, Circ. (in press). Briefly, coverslips with confluent cells were removed from culture media and pre-equilibrated for 40-60 seconds in MEBSS buffer. Uptake and retention experiments were initiated by immersion of coverslips in 60 mm glass Pyrex dishes containing loading solution consisting of buffer with 0.1-0.6 nM [^99m Tc-MIBI] (0.01-0.4 Ci/nmole; 25-100 uCi/ml). Preparations were removed at various times and rinsed three times in 25 ml volumes of ice-cold (2° C.) isotope-free buffer for 8 seconds each to clear extracellular spaces. Preparations and aliquots of the loading buffer and stock solutions were counted in a well-type sodium iodide gamma counter after which cell protein on each coverslip was extracted in 1% sodium dodecylsulfate with 10 mM sodium borate and assayed by the method of Lowry (Lowry, O. H., et al., J. Biol. Chem. 193:265-275 (1951)). […]"}, "[2]": {"tested_on": "cultured chick heart cells", "assay": "Effect of valinomycin on tetraphenylborate enhancement of Tc-MIBI accumulation in high Ko buffer (Table 1)", "type": "cell-based", "conditions": "for Tc-MIBI Net Uptake: n = 3", "experimental": "Monolayers of spontaneously contractile chick ventricular myocardial cells were obtained from disaggregated 10-day old chick embryo hearts by a slight modification of previously published methods (Horres, C. R., et al., In Pinson, A. (ed.), The Heart Cell in Culture, Boca Raton, CRC Press, pp. 77-108 (1987)). Hearts were trimmed of connective tissue and atria, finely minced and serially exposed to 0.024% (w/v) trypsin in Ca^2+ - and Mg^2+ - free Earle's salt solution for 7 minutes at 37° C. Gentle trituration and agitation on an orbital shaker bath aided disaggregation. Cells released from the first exposure were discarded and cells aspirated from the next four exposures were then added to an equal volume of trypsin deactivating solution consisting of ice-cold culture medium. Cells were centrifuged at 400 g for 10 minutes, resuspended and combined in culture medium, counted with a hemocytometer and diluted to yield a suspension of 5×10^5 cells/ml. 12 ml of suspension were incubated in 100 mm plastic culture dishes containing 7 coverslips (25 mm diameter) placed on the bottom of each dish to serve as substrate for cell growth. Cells were maintained in a humidified atmosphere of 5% CO2 /95% air for 3-4 days yielding a confluent layer of spontaneously contractile myocytes on each coverslip.\nRadioactive uptake methods have been described in detail (Piwnica-Worms, D., et al, Circ. (in press). Briefly, coverslips with confluent cells were removed from culture media and pre-equilibrated for 40-60 seconds in MEBSS buffer. Uptake and retention experiments were initiated by immersion of coverslips in 60 mm glass Pyrex dishes containing loading solution consisting of buffer with 0.1-0.6 nM [^99m Tc-MIBI] (0.01-0.4 Ci/nmole; 25-100 uCi/ml). Preparations were removed at various times and rinsed three times in 25 ml volumes of ice-cold (2° C.) isotope-free buffer for 8 seconds each to clear extracellular spaces. Preparations and aliquots of the loading buffer and stock solutions were counted in a well-type sodium iodide gamma counter after which cell protein on each coverslip was extracted in 1% sodium dodecylsulfate with 10 mM sodium borate and assayed by the method of Lowry (Lowry, O. H., et al., J. Biol. Chem. 193:265-275 (1951)). Tc-MIBI binding to glass coverslips without cells was used as an estimate of non-specific adhesion to the substrate ([…] obtained with cellular preparations); this value was subtracted from total uptake determinations to derive the cell-associated counts. Use of generator equilibrium equations (Lamson, M. L., et al., i J. Nucl. Med. 16:639-641 (1975)) allowed calculation of absolute moles of Tc-MIBI in solutions and preparations. Results were therefore expressed as fmol cellular Tc-MIBI/mg protein per nM extracellular Tc-MIBI concentration. Division of this value by the cell water space (6.9 ul/mg protein; Chiu, M. L., et al., J. Nucl. Med. (31:1646-1653(1990)) yields a nominal intracellular/extracellular Tc-MIBI accumulation ratio neglecting subcellular compartmentation of the agent.\nTo further explore the influence of TPB on any potential-independent accumulation of Tc-MIBI in myocytes, preparations were exposed to 130 mM K° 20 mM Clo buffer (Table 1). […] Equilibration of intracellular and extracellular spaces occurred in the presence of high K buffer plus valinomycin under all conditions (in/out ration ~1; P=NS) indicating the lack of any significant potential-independent membrane binding of Tc-MIBI.\nPreparations were incubated in high Ko low Clo loading buffer +/- valinomycin (1 ug/ml) for 20 minutes in the presence of TPB (10^-5 M) or for 40 minutes in its absence to determine peak accumulation of Tc-MIBI under each condition. Values are the mean ±SEM. Tc-MIBI in/out ratios were obtained by dividing net uptake values by the cell water space of […] (Chiu, M. L., et al., J. Nucl. 31:1646-1653 (1990)). +p<0.01; * p<0.001 compared to net uptake in 130 mM Ko buffer."}},
  "data": [
    {"smiles": "[C-]#[N+]CC(C)(C)OC.[C-]#[N+]CC(C)(C)OC.[C-]#[N+]CC(C)(C)OC.[C-]#[N+]CC(C)(C)OC.[C-]#[N+]CC(C)(C)OC.[C-]#[N+]CC(C)(C)OC.[Tc]", "note": "[Tc-MIBI, hexakis(methoxyisobutylisonitrile)technetium(I)]", "values": [
      {"measurement": "Tc-MIBI uptake", "setting": "[1]; 130 mM K-MSA buffer, P=0.01", "result": "79.3±1.1 fmol Tc-MIBI/mg protein per nM"},
      {"measurement": "Tc-MIBI uptake", "setting": "[1]; 130 mM KCl buffer + bumetanide 10^-5 M", "result": "63.7±3.2 fmol Tc-MIBI/mg protein per nM"},
      {"measurement": "Tc-MIBIi/Tc-MIBIo (in/out ratio)", "setting": "[2]; 130 Ko (no TPB)", "result": 9.5},
      {"measurement": "Tc-MIBI Net Uptake", "setting": "[2]; 130 Ko (no TPB), 40 minutes", "result": "65.3 ± 5.3", "unit": "fmol/mg protein/nMo"},
      {"measurement": "Tc-MIBIi/Tc-MIBIo (in/out ratio)", "setting": "[2]; 130 Ko + TPB 10^-5 M", "result": 13.6},
      {"measurement": "Tc-MIBIi/Tc-MIBIo (in/out ratio)", "setting": "[2]; 130 Ko + TPB 10^-5 M + valinomycin 1 ug/ml", "result": 1.1},
      {"measurement": "Tc-MIBI Net Uptake", "setting": "[2]; 130 Ko + TPB 10^-5 M + valinomycin 1 ug/ml, 20 minutes, p<0.001 vs 130 mM Ko", "result": "7.6 ± 0.8", "unit": "fmol/mg protein/nMo"},
      {"measurement": "Tc-MIBI Net Uptake", "setting": "[2]; 130 Ko + TPB 10^-5 M, 20 minutes, p<0.01 vs 130 mM Ko", "result": "93.9 ± 4.4", "unit": "fmol/mg protein/nMo"},
      {"measurement": "Tc-MIBIi/Tc-MIBIo (in/out ratio)", "setting": "[2]; 130 Ko + valinomycin 1 ug/ml", "result": 0.9},
      {"measurement": "Tc-MIBI Net Uptake", "setting": "[2]; 130 Ko + valinomycin 1 ug/ml, 40 minutes, p<0.001 vs 130 mM Ko", "result": "6.2 ± 0.3", "unit": "fmol/mg protein/nMo"},
      {"measurement": "in/out ratio, high K buffer plus valinomycin", "setting": "[2]; all conditions, P=NS", "result": "~ 1"}
    ]}
  ]
}
